From ChEMBL document CHEMBL1201862, “PubChem BioAssay data set” (2004)
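96-well plates; 48 h exposure; 5 concentrations. Endpoints by linear interpolation between flanking doses. Not reached: highest tested concentration assigned. GI50 = concentration required for 50% inhibition of growth.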 The source made the active and inactive calls. No stated cut-off is given here; in the data, active = GI50 up to about 1.1 µM and inactive = higher.

Experiments:
Assay in all cases: growth of human tumour cells (NCI), 48 h
786-0 = tested on: 786-0
CAKI-1 = tested on: CAKI-1
DU-145 = tested on: DU-145
HCT-116 = tested on: HCT-116
HL-60 = tested on: HL-60
Hs-578T = tested on: Hs-578T
IGROV-1 = tested on: IGROV-1
LOX IMVI = tested on: LOX IMVI
M14 = tested on: M14
MDA-N = tested on: MDA-N
Malme-3M = tested on: Malme-3M
NCI-H226 = tested on: NCI-H226
NCI-H522 = tested on: NCI-H522
OVCAR-3 = tested on: OVCAR-3
OVCAR-4 = tested on: OVCAR-4
OVCAR-5 = tested on: OVCAR-5
SK-OV-3 = tested on: SK-OV-3
U-251 = tested on: U-251
UACC-257 = tested on: UACC-257
SF-539 = tested on: SF-539

Compound	GI50 (786-0)	GI50 (CAKI-1)	GI50 (DU-145)	GI50 (HCT-116)	GI50 (HL-60)	GI50 (Hs-578T)	GI50 (IGROV-1)	GI50 (LOX IMVI)	GI50 (M14)	GI50 (MDA-N)	GI50 (Malme-3M)	GI50 (NCI-H226)	GI50 (NCI-H522)	GI50 (OVCAR-3)	GI50 (OVCAR-4)	GI50 (OVCAR-5)	GI50 (SK-OV-3)	GI50 (U-251)	GI50 (UACC-257)	GI50 (SF-539)
CCC1c2[nH]c3ccccc3c2C[C@H]2C(=O)NC(C)C(=O)N12 (some centres not stated)	> 100 µM (inactive)	> 100 µM (inactive)	> 100 µM (inactive)	> 100 µM (inactive)	> 100 µM (inactive)	> 100 µM (inactive)	> 100 µM (inactive)	> 100 µM (inactive)	> 100 µM (inactive)	> 100 µM (inactive)	> 100 µM (inactive)	> 100 µM (inactive)	> 100 µM (inactive)	> 100 µM (inactive)	> 100 µM (inactive)	> 100 µM (inactive)	> 100 µM (inactive)	> 100 µM (inactive)	> 100 µM (inactive)	–
Nc1n[nH]c(Nc2ccc(Cl)cc2)c1P(=O)(c1ccccc1)c1ccccc1	–	44.8 µM (inactive)	37.7 µM (inactive)	–	25.8 µM (inactive)	14.8 µM (inactive)	19.1 µM (inactive)	31.6 µM (inactive)	21.3 µM (inactive)	11 µM (inactive)	21.5 µM (inactive)	24.3 µM (inactive)	20.2 µM (inactive)	18.1 µM (inactive)	22 µM (inactive)	18.8 µM (inactive)	30.8 µM (inactive)	30.3 µM (inactive)	31.3 µM (inactive)	21.8 µM (inactive)
N#Cc1c(N)c2c(c(-c3ccccc3)c1-c1ccccc1)C(=O)N(O)C2=O	47.1 µM (inactive)	> 100 µM (inactive)	39.4 µM (inactive)	19.5 µM (inactive)	53.7 µM (inactive)	18.9 µM (inactive)	19.5 µM (inactive)	89.7 µM (inactive)	> 100 µM (inactive)	82 µM (inactive)	> 100 µM (inactive)	18.8 µM (inactive)	56.2 µM (inactive)	26.9 µM (inactive)	66.8 µM (inactive)	63 µM (inactive)	–	94.6 µM (inactive)	> 100 µM (inactive)	66.5 µM (inactive)
O=C(NC(C(F)(F)F)(C(F)(F)F)P(=O)(Cc1ccccc1)Cc1ccccc1)C(C(F)(F)F)C(F)(F)F	17.2 µM (inactive)	52.4 µM (inactive)	37.8 µM (inactive)	17.3 µM (inactive)	22.4 µM (inactive)	55.7 µM (inactive)	18.5 µM (inactive)	18.1 µM (inactive)	18.4 µM (inactive)	19.5 µM (inactive)	19.1 µM (inactive)	13.4 µM (inactive)	26.2 µM (inactive)	31.6 µM (inactive)	–	22.3 µM (inactive)	31.8 µM (inactive)	17.6 µM (inactive)	22.6 µM (inactive)	20.7 µM (inactive)
O=P1(N(CCCl)CCCl)Oc2c(Cl)cc(Cl)c(Cl)c2Cc2c(Cl)c(Cl)cc(Cl)c2O1	90.4 µM (inactive)	64.9 µM (inactive)	71.1 µM (inactive)	27.9 µM (inactive)	> 100 µM (inactive)	30.3 µM (inactive)	–	39.8 µM (inactive)	75.3 µM (inactive)	67.8 µM (inactive)	–	26.9 µM (inactive)	31 µM (inactive)	45.2 µM (inactive)	26.7 µM (inactive)	30.8 µM (inactive)	43.2 µM (inactive)	96.6 µM (inactive)	59.7 µM (inactive)	> 100 µM (inactive)
CC(=O)OCC1OC(n2c3c(cc(C#N)c2=S)CCCCC3)C(OC(C)=O)C(OC(C)=O)C1OC(C)=O (configuration not stated)	> 100 µM (inactive)	> 100 µM (inactive)	> 100 µM (inactive)	> 100 µM (inactive)	> 100 µM (inactive)	> 100 µM (inactive)	> 100 µM (inactive)	> 100 µM (inactive)	> 100 µM (inactive)	> 100 µM (inactive)	> 100 µM (inactive)	> 100 µM (inactive)	> 100 µM (inactive)	> 100 µM (inactive)	> 100 µM (inactive)	> 100 µM (inactive)	–	> 100 µM (inactive)	> 100 µM (inactive)	> 100 µM (inactive)
COc1cc(Oc2nc3ccc(C(F)(F)F)cc3nc2-c2ccccc2)cc(OC)c1OC	3.21 µM (inactive)	5.06 µM (inactive)	> 100 µM (inactive)	10.8 µM (inactive)	31.8 µM (inactive)	21.9 µM (inactive)	58.2 µM (inactive)	18.4 µM (inactive)	–	40.7 µM (inactive)	87.9 µM (inactive)	33.3 µM (inactive)	25.1 µM (inactive)	27.5 µM (inactive)	6.58 µM (inactive)	> 100 µM (inactive)	12.4 µM (inactive)	13 µM (inactive)	48.8 µM (inactive)	19.7 µM (inactive)
Cc1c(-c2ccccc2)c(C#N)c2nnn(-c3cccc(Cl)c3)c(=O)n12	28.6 µM (inactive)	> 100 µM (inactive)	68.9 µM (inactive)	70 µM (inactive)	> 100 µM (inactive)	> 100 µM (inactive)	54.8 µM (inactive)	87.1 µM (inactive)	–	> 100 µM (inactive)	87.5 µM (inactive)	48.5 µM (inactive)	47.8 µM (inactive)	43 µM (inactive)	76.2 µM (inactive)	> 100 µM (inactive)	37.8 µM (inactive)	68.4 µM (inactive)	> 100 µM (inactive)	32.9 µM (inactive)
CN(C)c1ccc(/C=C/c2cc(-c3ccccc3)[n+](C)n2-c2ccccc2)cc1	0.43 µM (active)	1.91 µM (inactive)	0.215 µM (active)	0.125 µM (active)	0.0218 µM (active)	0.0332 µM (active)	0.154 µM (active)	0.299 µM (active)	0.617 µM (active)	0.114 µM (active)	–	0.138 µM (active)	< 0.01 µM (active)	0.234 µM (active)	6.41 µM (inactive)	1.6 µM (inactive)	0.401 µM (active)	0.0573 µM (active)	0.122 µM (active)	1.49 µM (inactive)
Cc1nc(Cl)c2sc(=S)n(-c3ccc(F)cc3)c2n1	2.45 µM (inactive)	1.56 µM (inactive)	1.51 µM (inactive)	1.75 µM (inactive)	7.16 µM (inactive)	1.86 µM (inactive)	1.74 µM (inactive)	1.77 µM (inactive)	2.11 µM (inactive)	1.87 µM (inactive)	10.6 µM (inactive)	17.4 µM (inactive)	2.84 µM (inactive)	1.94 µM (inactive)	13.6 µM (inactive)	10.8 µM (inactive)	13.2 µM (inactive)	5.06 µM (inactive)	2.54 µM (inactive)	–
c1ccc2c(CCNC3=NCCO3)cccc2c1	–	> 10 µM (inactive)	> 10 µM (inactive)	> 10 µM (inactive)	> 10 µM (inactive)	> 10 µM (inactive)	> 10 µM (inactive)	> 10 µM (inactive)	> 10 µM (inactive)	> 10 µM (inactive)	> 10 µM (inactive)	> 10 µM (inactive)	> 10 µM (inactive)	> 10 µM (inactive)	> 10 µM (inactive)	> 10 µM (inactive)	> 10 µM (inactive)	> 10 µM (inactive)	–	> 10 µM (inactive)
CC#CC#C/C(=C/C=CC(=O)OC)SC	> 100 µM (inactive)	> 100 µM (inactive)	> 100 µM (inactive)	> 100 µM (inactive)	> 100 µM (inactive)	> 100 µM (inactive)	> 100 µM (inactive)	> 100 µM (inactive)	> 100 µM (inactive)	> 100 µM (inactive)	> 100 µM (inactive)	> 100 µM (inactive)	> 100 µM (inactive)	–	> 100 µM (inactive)	> 100 µM (inactive)	> 100 µM (inactive)	> 100 µM (inactive)	> 100 µM (inactive)	> 100 µM (inactive)
Cc1ccc(CC(Cc2ccccc2C)C(=O)O)c(C(=O)O)c1 (configuration not stated)	> 100 µM (inactive)	> 100 µM (inactive)	> 100 µM (inactive)	> 100 µM (inactive)	> 100 µM (inactive)	> 100 µM (inactive)	> 100 µM (inactive)	> 100 µM (inactive)	> 100 µM (inactive)	> 100 µM (inactive)	> 100 µM (inactive)	> 100 µM (inactive)	> 100 µM (inactive)	> 100 µM (inactive)	> 100 µM (inactive)	> 100 µM (inactive)	–	> 100 µM (inactive)	> 100 µM (inactive)	> 100 µM (inactive)
CC(C)c1ccc2c(c1)[C@@]1(C)CC[C@H](C)C(C)(C)C1CC2 (some centres not stated)	18.1 µM (inactive)	23.9 µM (inactive)	25.7 µM (inactive)	18.4 µM (inactive)	34.4 µM (inactive)	24 µM (inactive)	51.8 µM (inactive)	17.6 µM (inactive)	18.9 µM (inactive)	26.1 µM (inactive)	18.5 µM (inactive)	17.3 µM (inactive)	27.4 µM (inactive)	25.4 µM (inactive)	15.9 µM (inactive)	24.4 µM (inactive)	18.5 µM (inactive)	–	19.5 µM (inactive)	23.4 µM (inactive)
C/C1=C\[C@@H](O)C(=O)/C=C/C=C\c2csc(n2)[C@@H](C)NC(=O)C[C@@]2(CC1)[S+]([O-])SC(=O)[C@]2(C)O (some centres not stated) [LEINAMYCIN]	0.00391 µM (active)	0.00133 µM (active)	0.00679 µM (active)	–	0.000752 µM (active)	0.0337 µM (active)	0.2 µM (active)	0.0116 µM (active)	0.00692 µM (active)	0.0101 µM (active)	0.00656 µM (active)	0.206 µM (active)	0.00188 µM (active)	0.0112 µM (active)	0.0217 µM (active)	0.104 µM (active)	0.138 µM (active)	0.0454 µM (active)	0.0298 µM (active)	0.00968 µM (active)
